Measurements published in patent US20220387468A1, “METHODS OF TREATING CANCER” (ASTRAZENECA AB, priority 2019, published 2022).

Experiments:
[1] = tested on: pancreatic cancer cell lines (SLFN11-deficient or SLFN11-proficient); assay: Pancreatic cell line panel, 6x6 concentration matrix, live-dead SyTox green assay, Loewe synergy; format: cell-based
From the text: SLFN11 RNA seq data (log 2 RPKM values) were downloaded from cancer cell line encyclopedia (CCLE) (Barretina J. et al., Nature, 2012; 483: 603-607) and drug response data (log(IC50) and area under the dose-response curve (AUCs)) from drug sensitivity in cancer database (Yang W et al., Nucleic Acids Res, 2013; 41: […]-61). Cell lines with CCLE RNA seq log 2 RPKM values below 1 were defined as SLFN11-deficient and cell lines with log 2 RPKM values above 1 as SLFN11-proficient. Nineteen pancreatic cell lines in 384-well plates were dosed with increasing concentrations of adavosertib and gemcitabine in a 6×6 concentration matrix using an Echo 555 (LabCyte). The dose range was 0-3 μM for adavosertib, and 0-0.3 μM for gemcitabine; in both cases dilutions 1:3 from the top dose were performed. Five days following continuous treatment, cell viability was determined by live-dead SyTox green assay (Life Technologies, Carlsbad, Calif., USA). Synergy was analyzed in Genedata screener software using the Loewe dose-additivity model as described above.

[2] = tested on: DU145 isogenic cells (WT and SLFN11 KO); format: cell-based; settings: SLFN11 KO cells compared to wild type DU145 cells; 72 hours; FIG. 2D
Experimental: For cell survival experiment in 96 well plate, cells were seeded in 96-well plates, following compound dosing using a HP dispenser. 72 hours later, cell viability was determined with end-point CellTiter-Glo luminescent assays (Promega). Percentage growth was calculated using the equation (T−T0)/(C−T0)×100, where T=compound-treated cells; T0=cells at 0 h time point and C=control cells. Dose response curves were plotted in GraphPad prism.

Row | Structure (SMILES) | response (log IC50) of SLFN11-deficient versus SLFN11-proficient cell lines ([1]; adavosertib monotherapy, FIG. 3B) | sensitivity (log IC50) of SLFN11-deficient versus SLFN11-proficient cell lines, fold less sensitive ([1]; gemcitabine monotherapy, on average, FIG. 3A) | sensitivity to DDA monotherapy (survival curves) [2]
1 | C=CCn1c(=O)c2cnc(Nc3ccc(N4CCN(C)CC4)cc3)nc2n1-c1cccc(C(C)(C)O)n1 [adavosertib] | same response |  | 
2 | Nc1ccn([C@@H]2O[C@H](CO)[C@@H](O)C2(F)F)c(=O)n1 [gemcitabine] |  | 100 times | resistant
3 | CC[C@@]1(O)C(=O)OCc2c1cc1n(c2=O)Cc2cc3ccccc3nc2-1 [camptothecin] |  |  | resistant
4 | NC(=O)NO [hydroxyurea] |  |  | resistant
5 | N.N.[Cl][Pt][Cl] [cisplatin] |  |  | resistant
6 | COc1cc([C@@H]2c3cc4c(cc3[C@@H](O[C@@H]3O[C@@H]5CO[C@@H](C)O[C@H]5[C@H](O)[C@H]3O)[C@H]3COC(=O)[C@H]23)OCO4)cc(OC)c1O [etoposide] |  |  | resistant
